For one assay, the system named is Male Sprague Dawley rats. As to the kind of experiment: Rat CFA in vivo model (mechanical hyperalgesia, paw withdrawal threshold). The note with it: 2 hours post-compound. As for the experimental part:
Male Sprague Dawley rats were used. Mechanical hyperalgesia was induced by injecting 25 μL of Complete Freund's Adjuvant (CFA) into the plantar surface of one hind paw. Mechanical hyperalgesia was measured using the Pressure Application Measurement apparatus (Ugo Basile, Gemonio, Italy). Briefly, a linearly increasing pressure was applied to an area of ˜50 mm^2 of the plantar side of the hind paw until a behavioural response (paw withdrawal) was observed or until the pressure reached 1000 gf. The pressure at which the behavioural response occurred was recorded as the “Paw Withdrawal Threshold” (PWT). Both CFA-injected and contralateral PWTs were determined for each rat, in each treatment group and at each time point of the studies. The Compound Examples were administered orally in a vehicle of dimethylsulfoxide (DMSO), Polyethylenglycol (PEG) and 2-hydroxypropyl-beta-cyclodextrin (HPCD) (v/v/v=3:20:77). Rats received a first dose of […] of Compound Example per kg body weight 1 hour before CFA injection and a second dose 24 hours after the CFA injection. Mechanical hyperalgesia testing was performed approximately 2 hours before CFA injection, then 2 and 4 hours after the second dose of Compound Example (i.e. 26 and 28 hours after CFA treatment). Data were expressed as the mean±S.D. Area Under the Curve (AUC) of PWTs (defined in table 3 as “AUC of Paw withdrawal threshold (AUC 0-4 hours) post-vehicle” with respect to vehicle group or “AUC of Paw withdrawal threshold (AUC 0-4 hours) post-drug” with respect to Compound Example). Data were analysed by performing a one-way ANOVA followed by a Dunnett's post hoc test. For p values less than 0.05 the results were deemed to be statistically significant.

A further assay deals with Female Brown Norway rats. The experiment in a line: Rat model for endometriosis, acute phase (4 day). It is filed as in vivo. The note with it: rat 4 day endometriosis model, once daily p.o. 1, 5, 15, 60 mg/kg. As for the experimental part: 4. Rat Model for Endometriosis, Acute Phase Female Brown Norway rats (Charles-River) were treated p.o. with Compound Example 3 (doses: 1 mg/kg, 5 mg/kg, 15 mg/kg, 60 mg/kg) or vehicle alone (10% DMSO+90% phosphate buffered saline (PBS)). 2 h later all animals got under deep anesthesia a transplantation of 6 uterus pieces in the peritoneal cavity. The tissue was obtained from donor animals which were pre-treated with 3 μg s.c. Estradiol (E2) for 2 days to guarantee standardized conditions of the uterus tissue. The animals were treated once daily p.o. with Compound Example 3 (doses: 1 mg/kg, 5 mg/kg, 15 mg/kg, 60 mg/kg) or vehicle alone (10% DMSO+90% phosphate buffered saline (PBS). 4 days later the animals were sacrificed and the transplants as surrogate endometriosis lesion tissue were analyzed for markers of lesion activity (inflammatory cytokines and proliferation marker). This approach is mimicking the early inflammatory phase of endometriosis close to menstruation. Analysis For RNA expression analysis the lesions, were excised. RNA was isolated after homogenization of tissues in guanidinium thiocyanate using the RNeasy mini Kit (Qiagen) with DNase digestion. […] Relative mRNA levels were calculated using the comparative CT method using the RQ-Manager software (Applied Biosystems). […]

For the next assay, the system named is male Lewis rats. The experiment in a line: In vivo adjuvant-induced arthritis (AIA) model. On the set-up: species or system rat. From the text: 10. In Vivo Adjuvant-Induced Arthritis (AIA) Model
The AIA model is characterized by a rapid onset and progression to polyarticular inflammation. Following the injection of CFA, signs of arthritis usually develop between day 10 and day 14. Typically, the disease is severe and leads to permanent joint malformations, including ankylosis. Joint swelling, lymphocyte infiltration, and cartilage degradation are shared features with human autoimmune arthritis.
To determine the anti-inflammatory activity of the Compound Examples, they were examined for their in vivo efficacy in an arthritis model. For this purpose, male Lewis rats (about 100 to 125 g, Charles River Laboratories, Germany) were each administered 100 μl of a complete Freund's adjuvant (CFA) solution (M. tuberculosis H37Ra [Difo Lab, Cat. No. 231141] dissolved in Incomplete Freund's adjuvant [Difco Lab, Cat. No. 263910]) into the tailhead subcutaneously on day 0. There were n=8 rats in each group. Both, a healthy control group and a disease control group treated with the vehicle only were included in the study. Each control group was given oral (p.o. or PO) treatment only with the vehicle (5% DMSO/95% PBS) of the Compound Examples. The treatment with different dosages of the Compound Examples dissolved in the vehicle was conducted in a preventative manner, i.e. starting from day 0 and continued to day 20, the end of the study, by daily oral administration. On day 0, the starting condition of the animals was determined in terms of the disease activity scores (rating of the severity of arthritis based on a points system). Here, points were awarded according to the extent of joint inflammation from 0 to 4 for the presence of an erythema including joint swelling (0=none; 1=slight; 2=moderate; 3=distinct; 4=severe) for both hind paws and were summed up to a single value. […] In addition, the extent of joint swelling was detected by measuring the ankles of hind paws sagittal×transversal [in mm^2] using an automated caliper (Bayer AG, Germany). Next to this, the grip strength, as a measure for hyperalgesia, using an automated grip strength test meter (IITC Life Science Inc., USA) was evaluated.
Statistical analysis of obtained results for all parameters were done with one way Anova (ANOVA; Analysis of variance) and the comparison to the control group via multiple reference analysis (Dunnett-test).

Molecules are shown by their SMILES.

On to `O=C(O)c1cc(NC(=O)C2(c3ccc(C(F)(F)F)cc3F)CC2)ccc1-c1cnn(C2CCC2)c1` [Example 3, 2-(1-Cyclobutyl-1H-pyrazol-4-yl)-5-[({1-[2-fluoro-4-(trifluoromethyl)phenyl]cyclopropyl}carbonyl)amino]benzoic acid], for which the “Paw withdrawal threshold 2 hours post-compound” value was 659 ± 20 gf (ns) with Male Sprague Dawley rats (0.75 mg/kg p.o.), 782 ± 50 gf (****) in the assay with Male Sprague Dawley rats (3 mg/kg p.o.), 812 ± 44 gf (****) in the assay on Male Sprague Dawley rats (15 mg/kg p.o.) and 885 ± 30 gf (****) in the assay on Male Sprague Dawley rats (60 mg/kg p.o.). In addition, the “expression of proliferation marker (PCNA) in lesions” value in the assay with Female Brown Norway rats (FIG. 1) is “decreased”. Moreover, the “expression of inflammatory cytokines in lesions (TNF alpha, IL-1 beta, IL-6)” value with Female Brown Norway rats (FIG. 2-4) is “decreased”. For the same molecule, the “dose-dependency in the adjuvant-induced arthritis (AIA) model” value with male Lewis rats (60, 15 or 3 mg/kg QD p.o., day 0 to day 20) is given as “clear dose-dependency”. Further, in the assay on male Lewis rats (oral treatment with 60 mg/kg once daily), the “severity of rat AIA” value is “significantly inhibited”. Also, the disease activity score entry with male Lewis rats (rat AIA model, oral once daily, FIG. 14A) was “reduction”. Besides, the “extent of joint swelling” value with male Lewis rats (rat AIA model, oral once daily, FIG. 14B) is “reduction”. Moreover, the “grip strength (hyperalgesia)” value with male Lewis rats (rat AIA model, oral once daily, FIG. 15) is “increase”.

The values above are taken from patent US12023319B2, “Carboxylic acid aromatic amides” (priority 2016, dated 2024).
